Measured values published in ChEMBL document CHEMBL4190322, “Structure-based development of novel triazoles and related thiazolotriazoles as anticancer agents and Cdc25A/B phosphatase inhibitors. Synthesis, in vitro biological evaluation, molecular docking and in silico ADME-T studies” (Eur J Med Chem, 2017).
Active and inactive are the calls of the source. The calls are words filed in the database; no cut-off is given here.

Legend:
Format in all cases: functional
HL-60 = assay: Growth inhibition of human HL60 cells at 10 uM after 48 hrs by SRB assay relative to control
NCI-H522 = assay: Growth inhibition of human NCI-H522 cells at 10 uM after 48 hrs by SRB assay relative to control; conditions: NCI-H522, 48 h, read-out: GI
A549 = assay: Growth inhibition of human A549 cells at 10 uM after 48 hrs by SRB assay relative to control; conditions: for inhibition of growth at 10 µM: A549, 48 h, read-out: GI
SK-MEL-2 = assay: Growth inhibition of human SK-MEL-2 cells at 10 uM after 48 hrs by SRB assay relative to control; conditions: for inhibition of growth at 10 µM: SK-MEL-2, 48 h, read-out: GI
SR = assay: Growth inhibition of human SR cells at 10 uM after 48 hrs by SRB assay relative to control; conditions: read-out: GI
SF-268 = assay: Growth inhibition of human SF268 cells at 10 uM after 48 hrs by SRB assay relative to control; conditions: for inhibition of growth at 10 µM: SF-268, 48 h, read-out: GI
UACC-257 = assay: Growth inhibition of human UACC257 cells at 10 uM after 48 hrs by SRB assay relative to control
UACC-62 = assay: Growth inhibition of human UACC62 cells at 10 uM after 48 hrs by SRB assay relative to control
CAKI-1 = assay: Growth inhibition of human Caki1 cells at 10 uM after 48 hrs by SRB assay relative to control; conditions: CAKI-1, 48 h, read-out: GI
LOX IMVI = assay: Growth inhibition of human LOXIMVI cells at 10 uM after 48 hrs by SRB assay relative to control; conditions: read-out: GI
HCT-116 = assay: Growth inhibition of human HCT116 cells at 10 uM after 48 hrs by SRB assay relative to control
A498 = assay: Growth inhibition of human A498 cells at 10 uM after 48 hrs by SRB assay relative to control; conditions: for inhibition of growth at 10 µM: A498, 48 h, read-out: GI
MOLT-4 = assay: Growth inhibition of human MOLT4 cells at 10 uM after 48 hrs by SRB assay relative to control; conditions: for inhibition of growth at 10 µM: MOLT-4, 48 h, read-out: GI
U-251 = assay: Growth inhibition of human U251 cells at 10 uM after 48 hrs by SRB assay relative to control; conditions: U-251, 48 h, read-out: GI
KM12 = assay: Growth inhibition of human KM12 cells at 10 uM after 48 hrs by SRB assay relative to control; conditions: KM12, 48 h, read-out: GI
UO-31 = assay: Growth inhibition of human UO31 cells at 10 uM after 48 hrs by SRB assay relative to control; conditions: UO-31, 48 h, read-out: GI
RPMI-8226 = assay: Growth inhibition of human RPMI8226 cells at 10 uM after 48 hrs by SRB assay relative to control; conditions: RPMI-8226, 48 h, read-out: GI
NCI-H226 = assay: Growth inhibition of human NCI-H226 cells at 10 uM after 48 hrs by SRB assay relative to control
CCRF-CEM = assay: Growth inhibition of human CCRF-CEM cells at 10 uM after 48 hrs by SRB assay relative to control; conditions: read-out: GI
786-0 = assay: Growth inhibition of human 786-0 cells at 10 uM after 48 hrs by SRB assay relative to control
K562 = assay: Growth inhibition of human K562 cells at 10 uM after 48 hrs by SRB assay relative to control; conditions: K562, 48 h, read-out: GI
SNB-19 = assay: Growth inhibition of human SNB19 cells at 10 uM after 48 hrs by SRB assay relative to control; conditions: SNB-19, 48 h, read-out: GI
Malme-3M = assay: Growth inhibition of human MALME-3M cells at 10 uM after 48 hrs by SRB assay relative to control
SK-MEL-5 = assay: Growth inhibition of human SK-MEL-5 cells at 10 uM after 48 hrs by SRB assay relative to control; conditions: for inhibition of growth at 10 µM: SK-MEL-5, 48 h, read-out: GI
OVCAR-4 = assay: Growth inhibition of human OVCAR4 cells at 10 uM after 48 hrs by SRB assay relative to control; conditions: for inhibition of growth at 10 µM: OVCAR-4, 48 h, read-out: GI
HT-29 = assay: Growth inhibition of human HT-29 cells at 10 uM after 48 hrs by SRB assay relative to control; conditions: for inhibition of growth at 10 µM: HT-29, 48 h, read-out: GI
OVCAR-3 = assay: Growth inhibition of human OVCAR3 cells at 10 uM after 48 hrs by SRB assay relative to control
RXF 393 = assay: Growth inhibition of human RXF393 cells at 10 uM after 48 hrs by SRB assay relative to control
Hs-578T = assay: Growth inhibition of human Hs 578T cells at 10 uM after 48 hrs by SRB assay relative to control
NCI-H322M = assay: Growth inhibition of human NCI-H322M cells at 10 uM after 48 hrs by SRB assay relative to control
OVCAR-8 = assay: Growth inhibition of human OVCAR8 cells at 10 uM after 48 hrs by SRB assay relative to control
HOP-62 = assay: Growth inhibition of human HOP62 cells at 10 uM after 48 hrs by SRB assay relative to control; conditions: HOP-62, 48 h, read-out: GI
PC-3 = assay: Growth inhibition of human PC3 cells at 10 uM after 48 hrs by SRB assay relative to control; conditions: PC-3, 48 h, read-out: GI
HOP-92 = assay: Growth inhibition of human HOP92 cells at 10 uM after 48 hrs by SRB assay relative to control; conditions: HOP-92, 48 h, read-out: GI
SNB-75 = assay: Growth inhibition of human SNB75 cells at 10 uM after 48 hrs by SRB assay relative to control; conditions: SNB-75, 48 h, read-out: GI
MCF7 = assay: Growth inhibition of human MCF7 cells at 10 uM after 48 hrs by SRB assay relative to control; conditions: MCF7, 48 h, read-out: GI
NCI-H23 = assay: Growth inhibition of human NCI-H23 cells at 10 uM after 48 hrs by SRB assay relative to control; conditions: NCI-H23, 48 h, read-out: GI
NCI/ADR-RES = assay: Growth inhibition of human NCI/ADR-RES cells at 10 uM after 48 hrs by SRB assay relative to control; conditions: read-out: GI
MDA-MB-468 = assay: Growth inhibition of human MDA-MB-468 cells at 10 uM after 48 hrs by SRB assay relative to control
SK-OV-3 = assay: Growth inhibition of human SKOV3 cells at 10 uM after 48 hrs by SRB assay relative to control; conditions: for inhibition of growth at 10 µM: SK-OV-3, 48 h, read-out: GI

Structure (SMILES) | growth inhibition (GI) (HL-60) | inhibition of growth at 10 µM (NCI-H522) | inhibition of growth at 10 µM (SR) | inhibition of growth at 10 µM (CAKI-1) | inhibition of growth at 10 µM (LOX IMVI) | growth inhibition (GI) (HCT-116) | inhibition of growth at 10 µM (U-251) | inhibition of growth at 10 µM (KM12) | inhibition of growth at 10 µM (UO-31) | inhibition of growth at 10 µM (RPMI-8226) | inhibition of growth at 10 µM (CCRF-CEM) | growth inhibition (GI) (786-0) | inhibition of growth at 10 µM (K562) | inhibition of growth at 10 µM (SNB-19) | growth inhibition (GI) (OVCAR-3) | growth inhibition (GI) (Hs-578T) | growth inhibition (GI) (OVCAR-8) | inhibition of growth at 10 µM (HOP-62) | inhibition of growth at 10 µM (PC-3) | inhibition of growth at 10 µM (HOP-92) | other results
COc1ccc(Cc2nnc3sc(SCC(=O)Nc4ccc(Cl)cc4)nn23)cc1 | inactive | 8.35% | 7.04% | 5.77% | 8% | inactive | 4.46% | 5.75% | 10.2% | 7.47% | 9.02% | inactive | 2.76% | 10.4% | inactive | inactive | inactive | 4.5% | 14.8% | 20.3% | growth inhibition (GI) (A549): inactive; growth inhibition (GI) (SK-MEL-2): inactive; growth inhibition (GI) (SF-268): inactive; growth inhibition (GI) (UACC-257): inactive; growth inhibition (GI) (UACC-62): inactive; inhibition of growth at 10 µM (A498): 19.6%; growth inhibition (GI) (MOLT-4): inactive; growth inhibition (GI) (NCI-H226): inactive; growth inhibition (GI) (Malme-3M): inactive; growth inhibition (GI) (SK-MEL-5): inactive; inhibition of growth at 10 µM (OVCAR-4): 5.49%; growth inhibition (GI) (HT-29): inactive; growth inhibition (GI) (RXF 393): inactive; growth inhibition (GI) (NCI-H322M): inactive; inhibition of growth at 10 µM (SNB-75): 20.2%; inhibition of growth at 10 µM (MCF7): 10%; inhibition of growth at 10 µM (NCI-H23): 9.4%; inhibition of growth at 10 µM (NCI/ADR-RES): 2.54%; growth inhibition (GI) (MDA-MB-468): inactive; inhibition of growth at 10 µM (SK-OV-3): 1.64%
COc1ccc(Cc2nnc3sc(SCC(=O)Nc4ccc(C)cc4)nn23)cc1 | inactive | 12.2% | 7.23% | 11.9% | 16.7% | inactive | 6.5% | 3.51% | 13.6% | 1.58% | 7.47% | inactive | 7.25% | 3.61% | inactive | inactive | inactive | 2% | 11.5% | 23.8% | inhibition of growth at 10 µM (A549): 2.5%; inhibition of growth at 10 µM (SK-MEL-2): 14.8%; growth inhibition (GI) (SF-268): inactive; growth inhibition (GI) (UACC-257): inactive; growth inhibition (GI) (UACC-62): inactive; growth inhibition (GI) (A498): inactive; inhibition of growth at 10 µM (MOLT-4): 2.19%; growth inhibition (GI) (NCI-H226): inactive; growth inhibition (GI) (Malme-3M): inactive; inhibition of growth at 10 µM (SK-MEL-5): 1.64%; growth inhibition (GI) (OVCAR-4): inactive; inhibition of growth at 10 µM (HT-29): 1.67%; inhibition of growth at 10 µM (RXF 393; RXF 393, 48 h, read-out: GI): 1.65%; inhibition of growth at 10 µM (NCI-H322M; read-out: GI): 3.14%; inhibition of growth at 10 µM (SNB-75): 12%; inhibition of growth at 10 µM (MCF7): 5.79%; inhibition of growth at 10 µM (NCI-H23): 3.12%; inhibition of growth at 10 µM (NCI/ADR-RES): 3.81%; growth inhibition (GI) (MDA-MB-468): inactive; inhibition of growth at 10 µM (SK-OV-3): 4.35%
COc1ccc(Cc2nnc(SCC(=O)Nc3ccc(C)cc3)n2-c2ccc(C)cc2)cc1 | inactive | 13.1% | 12.8% | 1.24% | 2.4% | inactive | 2% | 8.1% | 31.3% | 10% | 7.21% | inactive | 26.4% | 3.42% | inactive | inactive | inactive | 1.2% | 32.4% | 17.5% | inhibition of growth at 10 µM (A549): 1.85%; inhibition of growth at 10 µM (SK-MEL-2): 6.19%; inhibition of growth at 10 µM (SF-268): 4.43%; growth inhibition (GI) (UACC-257): inactive; inhibition of growth at 10 µM (UACC-62; UACC-62, 48 h, read-out: GI): 4.65%; inhibition of growth at 10 µM (A498): 46.2%; inhibition of growth at 10 µM (MOLT-4): 39.5%; growth inhibition (GI) (NCI-H226): inactive; growth inhibition (GI) (Malme-3M): inactive; growth inhibition (GI) (SK-MEL-5): inactive; growth inhibition (GI) (OVCAR-4): inactive; growth inhibition (GI) (HT-29): inactive; growth inhibition (GI) (RXF 393): inactive; growth inhibition (GI) (NCI-H322M): inactive; inhibition of growth at 10 µM (SNB-75): 1.89%; inhibition of growth at 10 µM (MCF7): 3%; inhibition of growth at 10 µM (NCI-H23): 2%; inhibition of growth at 10 µM (NCI/ADR-RES): 5.55%; growth inhibition (GI) (MDA-MB-468): inactive; inhibition of growth at 10 µM (SK-OV-3): 12%
CCSc1nnc(Cc2ccc(OC)cc2)n1-c1ccccc1 | inactive | 22.4% | 3.31% | 11.9% | 4.89% | inactive | 13% | 3.07% | 20% | 13.5% | 7.61% | inactive | 14.1% | 14.5% | inactive | inactive | inactive | 2.28% | 14.3% | 8.26% | inhibition of growth at 10 µM (A549): 5.86%; inhibition of growth at 10 µM (SK-MEL-2): 5%; inhibition of growth at 10 µM (SF-268): 6.15%; inhibition of growth at 10 µM (UACC-257; UACC-257, 48 h, read-out: GI): 3.16%; growth inhibition (GI) (UACC-62): inactive; inhibition of growth at 10 µM (A498): 22.1%; inhibition of growth at 10 µM (MOLT-4): 10%; inhibition of growth at 10 µM (NCI-H226; NCI-H226, 48 h, read-out: GI): 5.31%; inhibition of growth at 10 µM (Malme-3M; read-out: GI): 9.23%; inhibition of growth at 10 µM (SK-MEL-5): 4.7%; inhibition of growth at 10 µM (OVCAR-4): 7.48%; inhibition of growth at 10 µM (HT-29): 8.24%; growth inhibition (GI) (RXF 393): inactive; growth inhibition (GI) (NCI-H322M): inactive; inhibition of growth at 10 µM (SNB-75): 10%; inhibition of growth at 10 µM (MCF7): 5.53%; inhibition of growth at 10 µM (NCI-H23): 6.16%; inhibition of growth at 10 µM (NCI/ADR-RES): 6.88%; inhibition of growth at 10 µM (MDA-MB-468; MDA-MB-468, 48 h, read-out: GI): 10.7%; growth inhibition (GI) (SK-OV-3): inactive
